Experimental data reported in publication PMC8750417, “Intracellular Amplifiers of Reactive Oxygen Species Affecting Mitochondria as Radiosensitizers” (Cancers, 2021).
Where two headings read alike, the source gives them in different places.

What was measured:
[1] = test system: SAS cells; experiment: Cytotoxicity MTT assay, SAS; format: cell-based, human; conditions: for EC50: read-out: 50% cell survival (EC50)
Protocol: (§1) Optimization of concentration of prodrugs and controls / MTT assay
(§2) The MTT assay was also applied to assess the impact of various drugs (0.01-100 µM) on the viability of the two human head and neck squamous carcinoma cell (HNSCC) lines SAS and FaDu as well as retinal pigment epithelial ARPE-19 cells and human fibroblasts (HF). Cells were seeded into 96-well plates at concentrations of 4000 and 2000 cells per […]
(§3) h before exposure to the drugs. All drug dilutions were prepared from 20 mM stock solutions in DMSO. The final DMSO concentration was set to 0.5% in all sample s including control. After completion of the treatment, the wells were processed according to the routine MTT protocol as described above; the formazan absorbance was then measured on a Biotek Epoch Microplate Spectrophotometer at 590 nm and corrected for the background signal at 620 nm. N≥3 independent experiments were performed for each drug candidate, cell type and treatment interval. Cell survival was recorded as function of the drug concentration, and dose-response curves were fitted with the Boltzmann equation where appropriate. We calculated the half-maximal response (EC50) as well as the EC20 (80% survival) according to the line curve (see Tables S6-S8). EC20-values were used as a basis to select the compound-specific non-toxic drug concentrations for combination with radiotherapy.

[2] = test system: FaDu cells; experiment: Cytotoxicity MTT assay, FaDu; format: cell-based, human; conditions: for EC50: read-out: 50% cell survival (EC50)
Protocol: as §1, §2, §3

[3] = test system: ARPE-19 cells; experiment: Cytotoxicity MTT assay, ARPE-19; format: cell-based; conditions: read-out: 50% cell survival (EC50)
Protocol: Study of synergy of prodrugs with radiotherapy for SAS and FaDu cells
as §1, §2, §3

[4] = Prodrug-induced generation of ROS in cell free settings (DCFH/H2O2); conditions: for ROS Release Efficacy: relative acceleration of the rate of DCFH fluorescence increase with H2O2, pH 7.4, FeSO4 = 1.0
From the text: As previously reported, the NAAF-prodrugs react with ROS like H2O2, first leading to the cleavage of the B-C-bond with the formation of the phenol derivatives (product 2c-1, Figure S49, SI). The latter compounds exist in equilibrium with the corresponding phenolates. The phenolates undergo the spontaneous 1,6-elimination of para-quinone methide (QM) followed by the release of CO2 with the formation of the N-alkylaminoferrocene NAAF drugs (product 2c-2, Figure S46, SI). By using electrospray ionization mass spectrometry (ESI–MS), we confirmed for one representative prodrug 2c that it reacts with H2O2 in cell free settings according to this common mechanism (ESI-MS, Figures S46–S48, SI). The NAAF is further oxidized by H2O2 or molecular oxygen with the generation of drug NAAF^+ and highly toxic HO• or/and O2^•−. Finally, the NAAF^+ is reduced by glutathione (GSH), thereby closing the catalytic cycle, in which the NAAF acts as a catalyst. We evaluated the formation of HO• or/and O2^•− by using 2′,7′-dichlorodihydrofluorescein (DCFH) as a probe (Table 1, Figure S49, SI). This probe is oxidized to the fluorescent product 2′,7′-dichlorofluorescein (DCF) in the presence of HO• or/and O2^•−. […] The lower activity of 2c and 2d correlates with their higher lipophilicity and their correspondingly higher propensity to form aggregates in aqueous solution (Figure S45, SI).
Prodrug-induced generation of ROS in cell free settings
2',7'-Dichlorodihydrofluorescein diacetate (DCFH-DA, 4.9 mg) was dissolved in DMF (100 μL) and mixed with aqueous NaOH (0.1 M, 900 μL). The resulting mixture was incubated for 30 min at 22 °C in the dark to obtain a stock solution of 2',7'-dichlorodihydrofluorescein (DCFH, 10 mM). Next, DCFH (1 µL ) was added to the solution containing MOPS buf fer (100 mM, pH 7.4), N,N,N'N' -e thylenediaminetetraacetic acid (EDTA , 10 mM) and glutathione (GSH , 5 mM) (1 mL, final concentration of DCFH 10 μM). The reaction mixture was heated to 37 °C and H2O2 (1 µL, final concentration 10 mM) was added. The reaction was monitored by fluorescence spectroscopy: λex = 501 nm, λem = 523 nm. After around 5 min, prodrugs (1 mM in DMF, 10 μL) or positive control FeSO4 (1 mM in water, 10 μL) were added, and the fluorescence monitoring was continued until the fluorescence signal growth was stalled after approximately 100 to 300 min. A representative kinetics of ROS […]
The data are presented in Table 1 as relative acceleration of the rate of the fluorescence increase, where the rate of the fluorescence increase obtained in the presence of positive control FeSO4 was set […]
y = a time + b (a = (dF/dt) , min-1)
Figure S49. Increase of the fluorescence intensity (λex = 501 nm, λem = 523 nm) upon oxidation of DCFH by H2O2 in the presence of FeSO4. Experimental details are provided in the description above. The time point of the FeSO4 addition is indicated with a black […]
(also on this page, place not known: ° C µL) buffer N,N,N'N'-ethylenediaminetetraacetic (EDTA, (GSH, ° C FeSO 4 (λ ex λ em Fluorescence (a.u.) (dF/dt)0, min -1 Addition of)
(1 picture or pasted object on this page, not shown here)

CC1(C)OB(c2ccc(COC(=O)N(Cc3cn(Cc4ccc(Cn5cc(Cc6ccccc6)nn5)cc4)nn3)[c-]3cccc3)cc2)OC1(C)C.[Fe+2].c1cc[cH-]c1 [2c]
80% cell survival (EC20) ([1]; 24h): > 50 µM
EC50 ([1]; 24h): > 50 µM
80% cell survival (EC20) ([1]; 48h): 10.4 ± 6.8 µM
EC50 ([1]; 48h): > 50 µM
80% cell survival (EC20) ([2]; 24h): > 50 µM
EC50 ([2]; 24h): > 50 µM
80% cell survival (EC20) ([2]; 48h): 18.0 ± 5.1 µM
EC50 ([2]; 48h): > 50 µM
EC50 ([3]; ARPE-19, 24h): > 50 µM
EC50 ([3]; ARPE-19, 48h): > 50 µM
ROS-generating activity, fold lower than that of 2a and 2b ([4]; cell free DCFH assay): ~ 2 fold
ROS Release Efficacy [4]: 0.35 ± 0.17

[Fe+2].c1cc[cH-]c1.c1cc[cH-]c1 [compound 6, ferrocene]
80% cell survival (EC20) ([1]; 24h): > 50 µM
EC50 ([1]; 24h): > 50 µM
80% cell survival (EC20) ([1]; 48h): > 50 µM
EC50 ([1]; 48h): > 50 µM
80% cell survival (EC20) ([2]; 24h): > 50 µM
EC50 ([2]; 24h): > 50 µM
80% cell survival (EC20) ([2]; 48h): > 50 µM
EC50 ([2]; 48h): > 50 µM
EC50 ([3]; ARPE-19, 24h): > 50 µM
EC50 ([3]; ARPE-19, 48h): > 50 µM

CC1(C)OB(c2ccc(COC(=O)N(Cc3cccc(CN4CCCCC4)c3)[c-]3cccc3)cc2)OC1(C)C.[Fe+2].c1cc[cH-]c1 [5b]
80% cell survival (EC20) ([1]; 24h): 7.0 ± 1.5 µM
EC50 ([1]; 24h): 18.7 ± 4.7 µM
80% cell survival (EC20) ([1]; 48h): 2.4 ± 1.3 µM
EC50 ([1]; 48h): 5.8 ± 0.8 µM
80% cell survival (EC20) ([2]; 24h): 11.5 ± 1.3 µM
EC50 ([2]; 24h): 26.3 ± 3.4 µM
EC50 ([2]; 48h): 19.8 ± 0.3 µM
EC50 ([3]; ARPE-19, 24h): 40.4 ± 2.5 µM
EC50 ([3]; ARPE-19, 48h): 26.6 ± 8.3 µM

CCOC(=O)CCCCCn1cc(CN(C(=O)OCc2ccc(B3OC(C)(C)C(C)(C)O3)cc2)[c-]2cccc2)nn1.[Fe+2].c1cc[cH-]c1 [compound 1]
ROS Release Efficacy [4]: 0.99 ± 0.16
